Assay results from patent US6355785B1, “Guanosine-rich oligonucleotide integrase inhibitors” (Aronex Pharmaceuticals, Inc., priority 1993, dated 2002).
Where two headings read alike, the source gives them in different places.

Assays:
[1] = design: species or system cynomolgus monkeys; conditions: cynomolgus monkey, in vivo
Protocol: Dosing. Twelve experimentally naive cynomolgus monkeys were assigned to four groups of three animals each. Prior to dosing, each animal was lightly sedated with a combination of ketamine (1 0 mg/kg) and diazepam (0.5 mg/kg), and a catheter was introduced into the femoral artery for recording central arterial pressure. Monkeys were given a single intravenous infusion of 5, 20, or 50 mg AR177/kg or saline over ten minutes through a cephalic vein catheter using a Harvard infusion pump. Arterial blood samples were drawn at −10, +10, +20, +40, +60 and +120 minutes relative to the initiation of infusion into EDTA-containing tubes for hematology, complement factors, coagulation assay, serum chemistry, and plasma AR177 determination. At 24 hours post-infusion, blood was drawn via the femoral vein into EDTA-containing tubes for these same parameters. The concentration of AR177 in dosing solutions was confirmed post experiment by absorbance at 280 nm on a spectrophotometer. For the determination of AR177 by HPLC, the plasma fraction was obtained by low speed centrifugation of blood, and stored at −20° C. until used. Electrocardiograms (ECGs), central pressure, and heart rate were recorded continuously for 120 minutes following the initiation of doing. Table E-1 summarizes the study design. The animals were observed twice daily pharmacotoxic signs and general health beginning two days before dosing and for seven days following dosing. The monkeys were not necropsied at the end of the study.
Hematology and coagulation parameters. The following are determined: red blood cell count and morphology, total and differential white blood cells, hemoglobin, hematocrit, prothrombin time, fibrinogen, mean cell hemoglobin, mean corpuscular volume, mean corpuscular hemoglobin concentration, platelet count, and activated partial thromboplastin time. Hematology parameters were determined at Sierra Nevada Laboratories (Reno, Nev.).

[2] = test system: HIV-1IIIB; assay: Time of drug addition study, MT-4 cells (p24); format: cell-based; conditions: 100-fold IC50, MOI 1, p24 at 29 hour
[3] = test system: HIV-1 laboratory isolates; assay: HIV-1 infection of PBMCs (p24); format: cell-based; conditions: read-out: IC50 viral production
[4] = test system: HIV-1 clinical isolates; assay: microbe, parasite or virus in culture; format: cell-based
[5] = test system: HIV-1 strains (SKI, RF, DV, IIIB, ADP/141); assay: microbe, parasite or virus in culture; format: cell-based; conditions: Human immunodeficiency virus 1, IIIB
[6] = test system: HIV-1 infected PBMCs

## 5′-gtggtgggtgggtgggt-3′ (GTGGTGGGTGGGTGGGT; phosphorothioate termini, further chemistry not given here) [T30177, pPT version of parent compound I100-15, 17 mer]
[1]
  anticoagulant potency, less potent than thrombin-binding aptamer oligonucleotide: 40 fold
  hematology values: no changes in hematology values attributable to AR177
[2]
  delay of drug addition post-infection at which inhibitory effect is lost: one hour
[3]; HIV-1 IIIB
  IC50: 120 nM
[3]; HIV-1 JRCSF
  IC50: 280 ± 40 nM
[3]; HIV-1 MN
  IC50: 1350 ± 100 nM
[3]; HIV-1 RF
  IC50: 750 ± 130 nM

## Cc1cn([C@H]2C[C@H](N=[N+]=[N-])[C@@H](CO)O2)c(=O)[nH]c1=O [AZT, 3′-azido-3′-deoxythymidine]
[4]; Human immunodeficiency virus 1, read-out: IC50 values over the clinical isolates tested in PBLs, range over isolates
  IC50: 10 to 1650 nM
[4]; Human immunodeficiency virus 1, read-out: IC50 viral production, PBLs, clinical isolate 942716
  IC50: 2 ± 3 nM
[4]; Human immunodeficiency virus 1, read-out: IC50 viral production, PBLs, clinical isolate 942751
  IC50: 28 ± 2.5 nM
[4]; Human immunodeficiency virus 1, read-out: IC50 viral production, PBLs, clinical isolate BAKI (SI)
  IC50: 20 ± 6 nM
[4]; Human immunodeficiency virus 1, read-out: IC50 viral production, PBLs, clinical isolate BLCH (NSI)
  IC50: 22 ± 0.8 nM
[4]; Human immunodeficiency virus 1, read-out: IC50 viral production, PBLs, clinical isolate JOGA (NSI)
  IC50: > 1000 nM
[4]; Human immunodeficiency virus 1, read-out: IC50 viral production, PBLs, clinical isolate N. Amer. #1
  IC50: 10 ± 4 nM
[4]; Human immunodeficiency virus 1, read-out: IC50 viral production, PBLs, clinical isolate N. Amer. #2
  IC50: 1650 ± 7 nM
[4]; Human immunodeficiency virus 1, read-out: IC50 viral production, PBLs, clinical isolate ROJO (SI)
  IC50: 52 ± 0.4 nM
[4]; Human immunodeficiency virus 1, read-out: IC50 viral production, PBLs, clinical isolate S. E. Asia
  IC50: 60 ± 5 nM
[4]; Human immunodeficiency virus 1, read-out: IC50 viral production, PBLs, clinical isolate VIHU (NSI)
  IC50: 36 ± 0.7 nM
[4]; Human immunodeficiency virus 1, read-out: IC50 viral production, PBLs, clinical isolate WEJO (SI)
  IC50: 17 ± 0.1 nM
[4]; Human immunodeficiency virus 1, read-out: IC50 viral production, PBLs, clinical isolate WOME (SI)
  IC50: 25 ± 0.3 nM
[5]; CEM-SS, read-out: Antiviral Assay IC50 IIIB, HIV-1 IIIB, CEM-SS or MT4
  IC50: 2 nM
[5]; CEM-SS, read-out: Antiviral Assay IC50 RF, HIV-1 RF, CEM-SS or MT4
  IC50: 7 nM
[5]; CEM-SS, read-out: Antiviral Assay IC50 SKI, HIV-1 SKI, CEM-SS or MT4
  IC50: 22 nM
[5]; CEM-SS, read-out: IC50 (cpe assay), RF (CEM-SS), MOI 0.01
  IC50: 10 nM
[5]; CEM-SS, read-out: IC50 (cpe assay), RF (CEM-SS), MOI 0.02
  IC50: 20 nM
[5]; CEM-SS, read-out: IC50 (cpe assay), RF (CEM-SS), MOI 0.04
  IC50: 70 nM
[5]; CEM-SS, read-out: IC50 (cpe assay), RF (CEM-SS), MOI 0.64
  IC50: > 10000 nM
[5]; CEM-SS, read-out: IC50 (cpe assay), RF (CEM-SS), MOI 1.28
  IC50: > 10000 nM
[5]; CEM-SS, read-out: IC50 virus production, HIV-1 IIIB, CEM-SS
  IC50: 2 ± 0.3 nM
[5]; CEM-SS, read-out: IC50 virus production, HIV-1 RF, CEM-SS, MOI 0.01
  IC50: 7 nM
[5]; CEM-SS, read-out: IC50 virus production, HIV-1 SKI, CEM-SS, MOI 0.01
  IC50: 22 ± 0.1 nM
[5]; CEM-SS, read-out: IC90 (cpe assay), RF (CEM-SS), MOI 0.16
  IC90: > 10000 nM
[5]; CEM-SS, read-out: IC90 (cpe assay), RF (CEM-SS), MOI 0.32
  IC90: > 10000 nM
[5]; CEM-SS, read-out: IC90 (cpe assay), RF (CEM-SS), MOI 0.64
  IC90: > 10000 nM
[5]; CEM-SS, read-out: IC90 (cpe assay), RF (CEM-SS), MOI 1.28
  IC90: > 10000 nM
[5]; SUP-T1, read-out: IC50 virus production, HIV-1 DV, SUP T1
  IC50: 30 ± 5 nM
[5]; SUP-T1, read-out: IC50 virus production, HIV-1 IIIB, SUP T1
  IC50: 30 ± 6 nM
[5]; read-out: IC50 (cpe assay)
  IC50: 37 nM
[5]; read-out: IC50 (cpe assay), IIIB (MT4), MOI 0.01
  IC50: 10 nM
[5]; read-out: IC50 virus production, HIV-1 IIIB, AA5
  IC50: < 3 nM
[5]; read-out: IC50 virus production, HIV-1 IIIB, MT2
  IC50: 10 ± 4 nM
[5]; read-out: IC50 virus production, HIV-1 RF, MT2
  IC50: 30 ± 5 nM
[5]; read-out: IC90 (cpe assay), IIIB (MT4), MOI 0.3
  IC90: 3300 nM
[6]; IIIB, drug 0.1 μM, day 7
  % CD4: 31%
  % CD8: 79%
[6]; IIIB, drug 1.0 μM
  % CD4: 30%
  % CD8: 81%
[6]; IIIB, drug 5.0 μM
  % CD4: 27%
  % CD8: 86%
[6]; MN, drug 0.1 μM
  % CD4: 25%
  % CD8: 82%
[6]; MN, drug 1.0 μM
  % CD4: 35%
  % CD8: 79%
[6]; MN, drug 5.0 μM
  % CD4: 36%
  % CD8: 78%
[6]; N. Amer. #1, drug 0.1 μM
  % CD4: 25%
  % CD8: 83%
[6]; N. Amer. #1, drug 1.0 μM
  % CD4: 25%
  % CD8: 84%
[6]; N. Amer. #1, drug 5.0 μM
  % CD4: 26%
  % CD8: 85%
[6]; N. Amer. #2, drug 0.1 μM
  % CD4: 6%
  % CD8: 95%
[6]; N. Amer. #2, drug 1.0 μM
  % CD4: 13%
  % CD8: 89%
[6]; N. Amer. #2, drug 5.0 μM
  % CD4: 25%
  % CD8: 85%
[6]; RF, drug 0.1 μM
  % CD4: 23%
  % CD8: 84%
[6]; RF, drug 1.0 μM
  % CD4: 32%
  % CD8: 76%
[6]; RF, drug 5.0 μM
  % CD4: 34%
  % CD8: 81%
[6]; SE Asia isolate, drug 0.1 μM
  % CD4: 29%
  % CD8: 82%
[6]; SE Asia isolate, drug 1.0 μM
  % CD4: 31%
  % CD8: 82%
[6]; SE Asia isolate, drug 5.0 μM
  % CD4: 29%
  % CD8: 86%
[2]
  delay of drug addition post-infection at which inhibitory effect is lost: 3 or 4 hours post-infection
[3]; Human immunodeficiency virus 1, IIIB, PBMC, HIV-1 IIIB
  IC50: 3 ± 0.2 nM
[3]; Human immunodeficiency virus 1, PBMC, HIV-1 JRCSF
  IC50: 2.5 ± 1 nM
[3]; Human immunodeficiency virus 1, PBMC, HIV-1 MN
  IC50: 53 ± 1 nM
[3]; Human immunodeficiency virus 1, PBMC, HIV-1 RF
  IC50: 272 ± 3 nM
